The text below walks through data of patent US7728003B2, “5-oxo-5,8-dihydro-pyrido-pyrimidines as inhibitors of c-fms kinase” (Janssen Pharmaceutica N.V., priority 2005, dated 2010).

Broadly, the inhibition is the percentage by which the read-out fell short of the control. For orientation: IC50 means the concentration that inhibits the measured activity by half. Low values mean higher potency, high ones lower potency.

For the test, the target named is c-fms (Homo sapiens, UniProt P07333). The test is described as follows: c-fms autophosphorylation, fluorescence polarization competition immunoassay. It counts as biochemical. Conditions: 10 nM c-fms, 1 mM ATP; for inhibition at 0.1 µM: test concentration 0.1 μM, read-out: c-fms Autophosphorylation Percent Inhibition, % @ 0.1 μM; for inhibition at 1 µM: test concentration 1 μM, read-out: c-fms Autophosphorylation Percent Inhibition, % @ 1 μM; for IC50: average of three independent measurements. The procedure: The assay buffer used was 100 mM 4-(2-hydroxyethyl)piperazine 1-ethanesulfonic acid (HEPES), pH 7.5, 1 mM 1,4-dithio-DL-threitol (DTT), 0.01% (v/v) Tween-20. Compounds were diluted in assay buffer containing 4% dimethylsulfoxide (DMSO) just prior to the assay. To each well, 5 μL of compound were added followed by the addition of 3 μL of a mix containing 33 nM c-fms and 16.7 mM MgCl2 (Sigma) in assay buffer. The kinase reaction was initiated by adding 2 μL of 5 mM ATP (Sigma) in assay buffer. The final concentrations in the assay were 10 nM c-fms, 1 mM ATP, 5 mM MgCl2, 2% DMSO. Control reactions were ran in each plate: in positive and negative control wells, assay buffer (made 4% in DMSO) was substituted for the compound; in addition, positive control wells received 1.2 μL of 50 mM ethylenediaminetetraaceticacid (EDTA).
Chain of c-fms (P07333 20-972): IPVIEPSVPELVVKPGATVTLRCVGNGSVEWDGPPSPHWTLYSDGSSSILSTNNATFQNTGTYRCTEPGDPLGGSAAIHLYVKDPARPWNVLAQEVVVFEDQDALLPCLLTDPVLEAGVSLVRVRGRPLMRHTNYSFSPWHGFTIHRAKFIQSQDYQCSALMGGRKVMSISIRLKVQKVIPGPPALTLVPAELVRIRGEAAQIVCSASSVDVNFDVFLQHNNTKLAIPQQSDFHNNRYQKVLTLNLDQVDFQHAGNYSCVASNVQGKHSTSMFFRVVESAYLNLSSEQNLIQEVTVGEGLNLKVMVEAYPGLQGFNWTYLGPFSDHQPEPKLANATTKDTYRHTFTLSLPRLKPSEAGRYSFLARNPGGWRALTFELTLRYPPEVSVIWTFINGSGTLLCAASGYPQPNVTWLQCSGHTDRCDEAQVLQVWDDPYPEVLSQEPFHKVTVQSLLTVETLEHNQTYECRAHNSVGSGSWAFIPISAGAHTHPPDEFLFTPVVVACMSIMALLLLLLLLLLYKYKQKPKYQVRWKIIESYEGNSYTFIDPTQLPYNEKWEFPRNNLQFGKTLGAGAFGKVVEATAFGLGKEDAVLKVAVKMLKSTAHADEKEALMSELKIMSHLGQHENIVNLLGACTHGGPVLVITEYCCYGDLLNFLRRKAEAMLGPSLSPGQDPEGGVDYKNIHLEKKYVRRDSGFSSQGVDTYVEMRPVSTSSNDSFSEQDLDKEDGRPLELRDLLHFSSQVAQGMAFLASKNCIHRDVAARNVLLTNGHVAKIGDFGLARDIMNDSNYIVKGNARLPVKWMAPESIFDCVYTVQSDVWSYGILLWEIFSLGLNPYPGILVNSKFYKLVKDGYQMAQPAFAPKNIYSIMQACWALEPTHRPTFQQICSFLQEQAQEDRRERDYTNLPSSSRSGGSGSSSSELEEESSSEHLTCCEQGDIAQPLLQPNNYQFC
The plates were incubated at room temperature for 45 min. At the end of the incubation, the reaction was quenched with 1.2 μL of 50 mM EDTA (EDTA was not added to the positive control wells at this point; see above). Following a 5-min incubation, each well received 10 μL of a 1:1:3 mixture of anti-phosphotyrosine antibody, 10X, PTK green tracer, 10X (vortexed), FP dilution buffer, respectively (all from PanVera, cat. # P2837). The plate was covered, incubated for 30 min at room temperature and the fluorescence polarization was read on the Analyst. The instrument settings were: 485 nm excitation filter; 530 nm emission filter; Z height: middle of well; G factor: 0.93.
The percent inhibition is shown in Table 1 at the indicated test concentration. The IC50 shown in Table 2 are averages of three independent measurements.
(In general: In fluorescence polarisation assays a small probe gives low polarisation when free and higher when bound to something large.)

As to `COc1cc(CNc2ncc3c(=O)c(C(N)=O)cn(C4CCCCC4)c3n2)cc(OC)c1` [Cpd 40, 8-Cyclohexyl-2-(3,5-dimethoxy-benzylamino)-5-oxo-5,8-dihydro-pyrido[2,3-d]pyrimidine-6-carboxylic acid amide], the inhibition at 0.1 µM came to 10% and the inhibition at 1 µM worked out at 47%.

`CN(C)CCCNc1ncc2c(=O)c(C(N)=O)cn(C3CCCCC3)c2n1` [Cpd 29, 8-Cyclohexyl-2-(3-dimethylamino-propylamino)-5-oxo-5,8-dihydro-pyrido[2,3-d]pyrimidine-6-carboxylic acid amide]: the inhibition at 0.1 µM turned out to be 22% and the inhibition at 1 µM was 65%. The corresponding values for `NC(=O)c1cn(C2CCCCC2)c2nc(NCCCn3ccnc3)ncc2c1=O` [Cpd 28, 8-Cyclohexyl-2-(3-imidazol-1-yl-propylamino)-5-oxo-5,8-dihydro-pyrido[2,3-d]pyrimidine-6-carboxylic acid amide] are 31% and 69%. As to `NC(=O)c1cn(-c2ccc3c(c2)CCC3)c2nc(NCCCn3ccnc3)ncc2c1=O` [Cpd 3, 2-(3-Imidazol-1-yl-propylamino)-8-indan-5-yl-5-oxo-5,8-dihydro-pyrido[2,3-d]pyrimidine-6-carboxylic acid amide], the IC50 came out at 2.3 µM. As for `COCCNc1ncc2c(=O)c(C(N)=O)cn(C3CCCCC3)c2n1` [Cpd 35, 8-Cyclohexyl-2-(2-methoxy-ethylamino)-5-oxo-5,8-dihydro-pyrido[2,3-d]pyrimidine-6-carboxylic acid amide], the inhibition at 0.1 µM stood at 29% and the inhibition at 1 µM is 67%. For `CONC(=O)c1cn(-c2ccc3c(c2)CCC3)c2nc(NCCN3CCOCC3)ncc2c1=O` [Cpd 26, 8-Indan-5-yl-2-(2-morpholin-4-yl-ethylamino)-5-oxo-5,8-dihydro-pyrido[2,3-d]pyrimidine-6-carboxylic acid methoxy-amide], the inhibition at 0.1 µM is 25% and the inhibition at 1 µM is 54%. For `NC(=O)c1cn(C2CCCCC2)c2nc(NCCN3CCCC3)ncc2c1=O` [Cpd 36, 8-Cyclohexyl-5-oxo-2-(2-pyrrolidin-1-yl-ethylamino)-5,8-dihydro-pyrido[2,3-d]pyrimidine-6-carboxylic acid amide], the inhibition at 0.1 µM stood at 5% and the inhibition at 1 µM was found to be 49%. With `CNC(=O)c1cn(C2CCCCC2)c2nc(NCCc3ccc(OC)cc3)ncc2c1=O` [Cpd 58, 8-Cyclohexyl-2-[2-(4-methoxy-phenyl)-ethylamino]-5-oxo-5,8-dihydro-pyrido[2,3-d]pyrimidine-6-carboxylic acid methylamide], the inhibition at 0.1 µM amounted to 13% and the inhibition at 1 µM worked out at 26%. The corresponding values for `CNC(=O)c1cn(C2CCCCC2)c2nc(NCCCN(C)C)ncc2c1=O` [Cpd 54, 8-Cyclohexyl-2-(3-dimethylamino-propylamino)-5-oxo-5,8-dihydro-pyrido[2,3-d]pyrimidine-6-carboxylic acid methylamide] are 6% and 26%. The corresponding values for `CNC(=O)c1cn(-c2ccc3c(c2)CCC3)c2nc(NCCOC)ncc2c1=O` [Cpd 16, 8-Indan-5-yl-2-(2-methoxy-ethylamino)-5-oxo-5,8-dihydro-pyrido[2,3-d]pyrimidine-6-carboxylic acid methylamide] are 12% and 39%. For the compound `CONC(=O)c1cn(-c2ccc3c(c2)CCC3)c2nc(NCCN3CCCCC3)ncc2c1=O` [Cpd 25, 8-Indan-5-yl-5-oxo-2-(2-piperidin-1-yl-ethylamino)-5,8-dihydro-pyrido[2,3-d]pyrimidine-6-carboxylic acid methoxy-amide], the inhibition at 0.1 µM worked out at 6% and the inhibition at 1 µM came out at 30%. In turn, `NC(=O)c1cn(-c2ccc3c(c2)CCC3)c2nc(NCCN3CCOCC3)ncc2c1=O` [Cpd 4, 8-Indan-5-yl-2-(2-morpholin-4-yl-ethylamino)-5-oxo-5,8-dihydro-pyrido[2,3-d]pyrimidine-6-carboxylic acid amide] yielded an IC50 of 3.3 µM. In the case of `NC(=O)c1cn(C2CCCCC2)c2nc(NCCCN3CCCC3)ncc2c1=O` [Cpd 34, 8-Cyclohexyl-5-oxo-2-(3-pyrrolidin-1-yl-propylamino)-5,8-dihydro-pyrido[2,3-d]pyrimidine-6-carboxylic acid amide], the inhibition at 0.1 µM turned out to be 31% and the inhibition at 1 µM worked out at 64%.

In the case of `CNC(=O)c1cn(C2CCCCC2)c2nc(NCCCOC)ncc2c1=O` [Cpd 56, 8-Cyclohexyl-2-(3-methoxy-propylamino)-5-oxo-5,8-dihydro-pyrido[2,3-d]pyrimidine-6-carboxylic acid methylamide], the inhibition at 0.1 µM was 6% and the inhibition at 1 µM was 23%. Turning to `NC(=O)c1cn(C2CCCCC2)c2nc(NCCCN3CCOCC3)ncc2c1=O` [Cpd 30, 8-Cyclohexyl-2-(3-morpholin-4-yl-propylamino)-5-oxo-5,8-dihydro-pyrido[2,3-d]pyrimidine-6-carboxylic acid amide], the inhibition at 0.1 µM stood at 24% and the inhibition at 1 µM amounted to 68%.

For `NC(=O)c1cn(C2CCCCC2)c2nc(NCCCN3CCCC3=O)ncc2c1=O` [Cpd 32, 8-Cyclohexyl-5-oxo-2-[3-(2-oxo-pyrrolidin-1-yl)-propylamino]-5,8-dihydro-pyrido[2,3-d]pyrimidine-6-carboxylic acid amide], the inhibition at 0.1 µM was 17% and the inhibition at 1 µM turned out to be 52%. The corresponding values for `CNC(=O)c1cn(C2CCCCC2)c2nc(NCCCn3ccnc3)ncc2c1=O` [Cpd 53, 8-Cyclohexyl-2-(3-imidazol-1-yl-propylamino)-5-oxo-5,8-dihydro-pyrido[2,3-d]pyrimidine-6-carboxylic acid methylamide] are 10% and 21%. As for `CNC(=O)c1cn(C2CCCCC2)c2nc(NCc3cc(OC)cc(OC)c3)ncc2c1=O` [Cpd 61, 8-Cyclohexyl-2-(3,5-dimethoxy-benzylamino)-5-oxo-5,8-dihydro-pyrido[2,3-d]pyrimidine-6-carboxylic acid methylamide], the inhibition at 0.1 µM worked out at 3% and the inhibition at 1 µM was 21%. In turn, `CN(C)CCCNc1ncc2c(=O)c(C(N)=O)cn(-c3ccc4c(c3)CCC4)c2n1` [Cpd 6, 2-(3-Dimethylamino-propylamino)-8-indan-5-yl-5-oxo-5,8-dihydro-pyrido[2,3-d]pyrimidine-6-carboxylic acid amide] came in with an IC50 of 7.1 µM. As for `COc1cc(CNc2ncc3c(=O)c(C(N)=O)cn(-c4ccc5c(c4)CCC5)c3n2)cc(OC)c1` [Cpd 11, 2-(3,5-Dimethoxy-benzylamino)-8-indan-5-yl-5-oxo-5,8-dihydro-pyrido[2,3-d]pyrimidine-6-carboxylic acid amide], the inhibition at 0.1 µM is 0% and the inhibition at 1 µM worked out at 50%.

On to `CONC(=O)c1cn(-c2ccc3c(c2)CCC3)c2nc(NCCCN3CCCC3=O)ncc2c1=O` [Cpd 22, 8-Indan-5-yl-5-oxo-2-[3-(2-oxo-pyrrolidin-1-yl)-propylamino]-5,8-dihydro-pyrido[2,3-d]pyrimidine-6-carboxylic acid methoxy-amide], for which the inhibition at 0.1 µM was 40% and the inhibition at 1 µM worked out at 72%. On the same counts, the results for `CONC(=O)c1cn(-c2ccc3c(c2)CCC3)c2nc(NCCc3ccc(OC)cc3)ncc2c1=O` [Cpd 24, 8-Indan-5-yl-2-[2-(4-methoxy-phenyl)-ethylamino]-5-oxo-5,8-dihydro-pyrido[2,3-d]pyrimidine-6-carboxylic acid methoxy-amide] are 52% and 59%. Regarding `CNC(=O)c1cn(C2CCCCC2)c2nc(NCCN3CCOCC3)ncc2c1=O` [Cpd 60, 8-Cyclohexyl-2-(2-morpholin-4-yl-ethylamino)-5-oxo-5,8-dihydro-pyrido[2,3-d]pyrimidine-6-carboxylic acid methylamide], the inhibition at 0.1 µM worked out at 12% and the inhibition at 1 µM was determined as 18%. Turning to `COc1ccc(CCNc2ncc3c(=O)c(C(N)=O)cn(C4CCCCC4)c3n2)cc1` [Cpd 37, 8-Cyclohexyl-2-[2-(4-methoxy-phenyl)-ethylamino]-5-oxo-5,8-dihydro-pyrido[2,3-d]pyrimidine-6-carboxylic acid amide], the inhibition at 0.1 µM was 29% and the inhibition at 1 µM turned out to be 41%.

As to `COCCNc1ncc2c(=O)c(C(=O)NOC)cn(-c3ccc4c(c3)CCC4)c2n1` [Cpd 23, 8-Indan-5-yl-2-(2-methoxy-ethylamino)-5-oxo-5,8-dihydro-pyrido[2,3-d]pyrimidine-6-carboxylic acid methoxy-amide], the inhibition at 0.1 µM was 51% and the inhibition at 1 µM stood at 65%.
